The source of these data is ChEMBL document CHEMBL1159298, “Leonticins A-C, three octasaccharide saponins from Leontice kiangnanensis” (J Nat Prod, 1996).

The structures appear in SMILES notation. Active and inactive are the calls of the source. No cut-off for these calls is given here.

For this test, the system named is KB. Kind of test: Cytotoxicity against human KB cells at 4 ug/ml. It is filed as functional, cell-based.

In the case of `C[C@@H]1O[C@@H](O[C@H]2CC[C@]3(C)[C@H]4CC=C5[C@@H]6CC(C)(C)CC[C@]6(C(=O)O)[C@H](O)C[C@@]5(C)[C@]4(C)CC[C@H]3C2(C)C)[C@H](O[C@@H]2O[C@H](CO)[C@@H](O)[C@H](O)[C@H]2O)[C@H](O[C@@H]2O[C@H](CO)[C@@H](O[C@@H]3O[C@H](CO)[C@H](O)[C@H](O[C@@H]4OC[C@@H](O)[C@H](O)[C@H]4O)[C@H]3O)[C@H](O)[C@H]2O)[C@H]1O`, the result was inactive. As for `C[C@@H]1O[C@@H](O[C@H]2[C@H](O)[C@@H](O)[C@H](O[C@H]3[C@H](O)[C@@H](O)[C@H](OC(=O)[C@]45CCC(C)(C)C[C@H]4C4=CC[C@@H]6[C@@]7(C)CC[C@H](O[C@@H]8O[C@@H](C)[C@H](O)[C@@H](O[C@@H]9O[C@H](CO)[C@@H](O[C@@H]%10O[C@H](CO)[C@H](O)[C@H](O[C@@H]%11OC[C@@H](O)[C@H](O)[C@H]%11O)[C@H]%10O)[C@H](O)[C@H]9O)[C@H]8O[C@@H]8O[C@H](CO)[C@@H](O)[C@H](O)[C@H]8O)C(C)(C)[C@@H]7CC[C@@]6(C)[C@]4(C)C[C@H]5O)O[C@@H]3CO)O[C@@H]2CO)[C@H](O)[C@H](O)[C@H]1O`, the outcome was inactive. Under `C[C@@H]1O[C@@H](O[C@H]2CC[C@]3(C)[C@H]4CC=C5[C@@H]6CC(C)(C)CC[C@]6(C(=O)O)CC[C@@]5(C)[C@]4(C)CC[C@H]3C2(C)C)[C@H](O[C@@H]2O[C@H](CO)[C@@H](O)[C@H](O)[C@H]2O)[C@H](O[C@@H]2O[C@H](CO)[C@@H](O[C@@H]3O[C@H](CO)[C@H](O)[C@H](O[C@@H]4OC[C@@H](O)[C@H](O)[C@H]4O)[C@H]3O)[C@H](O)[C@H]2O)[C@H]1O` stands “inactive”; under `C[C@@H]1O[C@@H](O[C@H]2CC[C@@]3(C)[C@@H](CC[C@]4(C)[C@@H]3CC=C3[C@@H]5CC(C)(C)CC[C@]5(C(=O)O)CC[C@]34C)[C@]2(C)CO)[C@H](O[C@@H]2O[C@H](CO)[C@@H](O)[C@H](O)[C@H]2O)[C@H](O)[C@H]1O`, “inactive”.

With `C[C@@H]1O[C@@H](O[C@H]2[C@H](O)[C@@H](O)[C@H](O[C@H]3[C@H](O)[C@@H](O)[C@H](OC(=O)[C@]45CCC(C)(C)C[C@H]4C4=CC[C@@H]6[C@@]7(C)CC[C@H](O[C@@H]8O[C@@H](C)[C@H](O)[C@@H](O[C@@H]9O[C@H](CO)[C@@H](O[C@@H]%10O[C@H](CO)[C@H](O)[C@H](O[C@@H]%11OC[C@@H](O)[C@H](O)[C@H]%11O)[C@H]%10O)[C@H](O)[C@H]9O)[C@H]8O[C@@H]8O[C@H](CO)[C@@H](O)[C@H](O)[C@H]8O)C(C)(C)[C@@H]7CC[C@@]6(C)[C@]4(C)CC5)O[C@@H]3CO)O[C@@H]2CO)[C@H](O)[C@H](O)[C@H]1O`, the result was inactive. In the case of `C[C@@H]1O[C@@H](O[C@H]2[C@H](O)[C@@H](O)[C@H](O[C@H]3[C@H](O)[C@@H](O)[C@H](O[C@@H]4[C@@H](O)[C@@H](O)[C@H](O[C@H]5[C@H](O)[C@@H](O)[C@H](O[C@H]6[C@H](O)[C@@H](O)[C@H](OC(=O)[C@]78CCC(C)(C)C[C@H]7C7=CC[C@@H]9[C@@]%10(C)CC[C@H](O[C@@H]%11O[C@@H](C)[C@H](O)[C@@H](O)[C@H]%11O[C@@H]%11O[C@H](CO)[C@@H](O)[C@H](O)[C@H]%11O)[C@@](C)(CO)[C@@H]%10CC[C@@]9(C)[C@]7(C)CC8)O[C@@H]6CO)O[C@@H]5CO)O[C@H]4C)O[C@@H]3CO)O[C@@H]2CO)[C@H](O)[C@H](O)[C@H]1O`, the outcome was inactive.
